The supplement of paper PMC9663587

Legend:
Assay in all cases: GRmax, 72 h; higher = less effect;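 further: breast cell lines in 384-well plates, nine doses across a 10^4 range, Dye Drop imaging of viable cells vs DMSO and time-zero plates, GR 0 means no net growth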
PDX1206 = test system: PDX1206
HCC1428 = test system: HCC1428
HCC1500 = test system: HCC1500

Row | SMILES | GRmax, 72 h (PDX1206) [GR] | GRmax, 72 h (HCC1428) [GR] | GRmax, 72 h (HCC1500) [GR] | further results
1 | COc1ccc2c(c1)[C@]1(C[C@H]1c1ccc3c(/C=C/c4ccc(CN5C[C@@H](C)O[C@@H](C)C5)cc4)n[nH]c3c1)C(=O)N2 | 0.0507 | – | – | –
2 | COc1cccc(OCCCN)c1-c1cc(Nc2cnc(C#N)cn2)n[nH]1 | -0.497 | – | – | –
3 | CC(=O)Nc1cccc(-n2c(=O)n(C3CC3)c(=O)c3c(Nc4ccc(I)cc4F)n(C)c(=O)c(C)c32)c1 (max 1 µM) | – | 0.815 | 0.344 | –
4 | CCc1cnn2c(NCc3ccc[n+]([O-])c3)cc(N3CCCC[C@H]3CCO)nc12 (max 1 µM) | – | -0.672 | -0.572 | –
5 | CC(=O)c1c(C)c2cnc(Nc3ccc(N4CCNCC4)cn3)nc2n(C2CCCC2)c1=O (max 3.162 µM) | – | 0.254 | 0.574 | –
6 | CCc1cncnc1N1CCN(Cc2nc3ccc(C(F)(F)F)cc3[nH]2)CC1 (max 10 µM) | – | 0.864 | 0.0495 | –
7 | CCCCOc1c(C(=O)c2c(F)cc(C)cc2F)c[nH]c2nncc1-2 (max 10 µM) | 0.123 | – | – | –
8 | CCN1CCN(Cc2ccc(Nc3ncc(F)c(-c4cc(F)c5nc(C)n(C(C)C)c5c4)n3)nc2)CC1 (max 10 µM) | – | 0.0492 | 0.22 | –
9 | CNc1nc(-c2ccc3c(N)n[nH]c3c2)cc(N2C[C@@H](C(=O)NC3CCCCC3)CC[C@H]2C)n1 (max 10 µM) | 0.295 | – | – | –
10 | CO[C@@H](C)Cn1c(=O)n(C)c2cnc3ccc(-c4cncc(C(C)(C)O)c4)cc3c21 (max 10 µM) | -0.404 | – | – | –
11 | Cc1nn(C)c(COc2ccc(N3CCN(S(=O)(=O)N(C)C)CC3)cc2)c1-c1cccc2c(CCCOc3cccc4ccccc34)c(C(=O)O)n(CCN3CCOCC3)c12 (max 10 µM) | – | 0.816 | 0.872 | –
12 | CN(C)CC[C@H](CSc1ccccc1)Nc1ccc(S(=O)(=O)NC(=O)c2ccc(N3CCN(Cc4ccccc4-c4ccc(Cl)cc4)CC3)cc2)cc1[N+](=O)[O-] [ABT-737] (max 10 µM) | – | 0.243 | -0.736 | –
13 | C=CCn1c(=O)c2cnc(Nc3ccc(N4CCN(C)CC4)cc3)nc2n1-c1cccc(C(C)(C)O)n1 [AZD1775] (max 10 µM) | -0.308 | – | – | –
14 | CNC(=O)c1cccc(-c2ccc3c(N4CCOC[C@@H]4C)nc(N4CCOC[C@@H]4C)nc3n2)c1 [AZD2014] (max 10 µM) | 0.14 | – | – | –
15 | NC1(C(=O)N[C@@H](CCO)c2ccc(Cl)cc2)CCN(c2nc[nH]c3nccc2-3)CC1 [AZD5363] (max 10 µM) | 0.397 | – | – | –
16 | C[C@@H]1COCCN1c1cc(C2([S@](C)(=N)=O)CC2)nc(-c2cc[nH]c3nccc2-3)n1 [AZD6738] (max 10 µM) | 0.141 | – | – | –
17 | NC(=O)Nc1cc(-c2cccc(F)c2)sc1C(=O)N[C@H]1CCCNC1 [AZD7762] (max 10 µM) | – | -0.215 | -0.256 | –
18 | Cc1nc(NC(=O)N2CCC[C@H]2C(N)=O)sc1-c1ccnc(C(C)(C)C(F)(F)F)c1 [Alpelisib/BYL719] (max 10 µM) | – | 0.853 | 0.581 | –
19 | CN(C)C/C=C/C(=O)Nc1ccc(O[C@@H]2CCC[C@@H](Nc3ncc(Cl)c(-c4c[nH]c5ccccc45)n3)C2)cc1 [BSJ-01-175] (max 10 µM) | -0.936 | – | – | –

Row | SMILES | GRmax, 72 h (PDX1206) [GR] | GRmax, 72 h (HCC1428) [GR] | GRmax, 72 h (HCC1500) [GR] | further results
20 | CC(=O)c1c(C)c2cnc(Nc3ccc(N4CCN(CCOCCOCCOCCNC(=O)COc5cccc6c5C(=O)N(C5CCC(=O)NC5=O)C6=O)CC4)cn3)nc2n(C2CCCC2)c1=O (stereo not given) [BSJ-03-123] (max 10 µM) | -0.138 | – | – | –
21 | CC(C)Nc1cc(-c2c[nH]c(C(=O)N[C@H](CO)c3cccc(Cl)c3)c2)c(Cl)cn1 [BVD523] (max 10 µM) | 0.564 | – | – | –
22 | Cc1c(N)nc([C@H](CC(N)=O)NC[C@H](N)C(N)=O)nc1C(=O)N[C@H](C(=O)N[C@H](C)[C@@H](O)[C@H](C)C(=O)N[C@H](C(=O)NCCc1nc(-c2nc(C(=O)NCCC[S+](C)C)cs2)cs1)[C@@H](C)O)[C@@H](OC1OC(CO)C(O)C(O)C1OC1OC(CO)C(O)C(OC(N)=O)C1O)c1cnc[nH]1 (stereo not given in full) [Bleomycin] (max 10 µM) | – | – | – | GRmax, 72 h (HCC1428; main component drawn): 0.217 GR; GRmax, 72 h (HCC1500; main component drawn): 0.174 GR
23 | Nc1cc(C(F)(F)F)c(-c2cc(N3CCOCC3)nc(N3CCOCC3)n2)cn1 [Buparlisib/NVP-BKM120] (max 10 µM) | – | -0.265 | -0.546 | –
24 | COc1cc2nccc(Oc3ccc(NC(=O)C4(C(=O)Nc5ccc(F)cc5)CC4)cc3)c2cc1OC [Cabozantinib] (max 10 µM) | – | 0.631 | 0.184 | –
25 | COc1cc2c(Oc3ccc4[nH]c(C)cc4c3F)ncnc2cc1OCCCN1CCCC1 [Cediranib/AZD2171] (max 10 µM) | – | -0.55 | -0.808 | –
26 | Cc1cc(Nc2ncc(Cl)c(Nc3ccccc3S(=O)(=O)C(C)C)n2)c(OC(C)C)cc1C1CCNCC1 [Ceritinib/LDK378] (max 10 µM) | – | -0.867 | -0.954 | –
27 | Cc1nc(Nc2ncc(C(=O)Nc3c(C)cccc3Cl)s2)cc(N2CCN(CCO)CC2)n1 [Dasatinib] (max 10 µM) | – | 0.578 | -0.159 | –
28 | COc1cccc2c1C(=O)c1c(O)c3c(c(O)c1C2=O)C[C@@](O)(C(=O)CO)C[C@@H]3O[C@H]1C[C@H](N)[C@H](O)[C@H](C)O1 [Doxorubicin] (max 3.162 µM) | – | -0.74 | -0.713 | –
29 | COc1cc([C@@H]2c3cc4c(cc3[C@@H](O[C@@H]3O[C@@H]5CO[C@@H](C)O[C@H]5[C@H](O)[C@H]3O)[C@H]3COC(=O)[C@H]23)OCO4)cc(OC)c1O [Etoposide] (max 10 µM) | – | -0.032 | -0.0766 | –
30 | CO[C@H]1C[C@@H]2CC[C@@H](C)[C@@](O)(O2)C(=O)C(=O)N2CCCC[C@H]2C(=O)O[C@H]([C@H](C)C[C@@H]2CC[C@@H](OCCO)[C@H](OC)C2)CC(=O)[C@H](C)/C=C(\C)[C@@H](O)[C@@H](OC)C(=O)[C@H](C)C[C@H](C)/C=C/C=C/C=C/1C [Everolimus] (max 10 µM) | – | 0.346 | -0.31 | –
31 | CCC(=O)Nc1ccc(C(=O)Nc2ccc(Nc3ncc4c(n3)N(C)c3ccc(C)cc3C(=O)N4C)cc2)cc1 [FMF-03-145-1] | 0.128 | – | – | –
32 | COc1cc(N2CCN(C)CC2)ccc1Nc1ncc2c(n1)N(C)c1ccccc1C(=O)N2CC(F)(F)F [FMF-03-146-1] | 0.966 | – | – | –
33 | CN1CC[C@H](c2c(O)cc(O)c3c(=O)cc(-c4ccccc4Cl)oc23)[C@H](O)C1 [Flavopiridol] (max 1 µM) | -0.566 | – | – | –
34 | CC(C)n1nc(-c2ccc3oc(N)nc3c2)c2c(N)ncnc21 [INK128/MLN0128] (max 3.162 µM) | – | -0.0001 | -0.469 | –
35 | CC(C)NC[C@@H](C(=O)N1CCN(c2ncnc3c2[C@H](C)C[C@H]3O)CC1)c1ccc(Cl)cc1 [Ipatasertib/GDC0068] (max 10 µM) | – | 0.991 | 1.08 | –
36 | CN(C)C(=O)c1cc2cnc(Nc3ccc(N4CCNCC4)cn3)nc2n1C1CCCC1 [LEE011/Ribociclib] (max 10 µM) | 0.713 | – | – | –
37 | CCNC(=O)c1noc(-c2cc(C(C)C)c(O)cc2O)c1-c1ccc(CN2CCOCC2)cc1 [Luminespib/NVP-AUY922] (max 1 µM) | – | -0.0043 | -0.224 | –
38 | CCOc1cc2ncc(C#N)c(Nc3ccc(OCc4ccccn4)c(Cl)c3)c2cc1NC(=O)/C=C/CN(C)C [Neratinib/HKI272] (max 3.162 µM) | – | -0.0412 | -0.287 | –

Row | SMILES | GRmax, 72 h (PDX1206) [GR] | GRmax, 72 h (HCC1428) [GR] | GRmax, 72 h (HCC1500) [GR] | further results
39 | O=C(c1cc(Cc2n[nH]c(=O)c3ccccc23)ccc1F)N1CCN(C(=O)C2CC2)CC1 [Olaparib/AZD2281] (max 10 µM) | – | 0.118 | 0.274 | –
40 | CC(=O)O[C@H]1C(=O)[C@@]2(C)[C@H]([C@H](OC(=O)c3ccccc3)[C@]3(O)C[C@H](OC(=O)[C@H](O)[C@@H](NC(=O)c4ccccc4)c4ccccc4)C(C)=C1C3(C)C)[C@]1(OC(C)=O)CO[C@@H]1C[C@@H]2O [Paclitaxel] (max 1 µM) | – | 0.0645 | -0.0589 | –
41 | CS(=O)(=O)N1CCN(Cc2cc3nc(-c4cccc5[nH]ncc45)nc(N4CCOCC4)c3s2)CC1 [Pictilisib/GDC0941] (max 10 µM) | – | 0.192 | -0.132 | –
42 | O=C1NC(=NCc2cccs2)SC1=Cc1ccc2ncccc2c1 [R0-3306] (max 10 µM) | 0.0387 | – | – | –
43 | CNCc1ccc(-c2[nH]c3cc(F)cc4c3c2CCNC4=O)cc1 [Rucaparib] (max 10 µM) | 0.586 | – | – | –
44 | CC1(N)CCN(c2cnc(-c3cccc(Cl)c3Cl)c(N)n2)CC1 [SHP099] (max 10 µM) | 0.7 | – | – | –
45 | CN1CCN(CCOc2cc(OC3CCOCC3)c3c(Nc4c(Cl)ccc5c4OCO5)ncnc3c2)CC1 [Saracatinib/AZD0530] (max 10 µM) | – | 0.669 | -0.197 | –
46 | Cc1cc(C(C)Nc2ccccc2)c2nc(N3CCOCC3)cc(=O)n2c1 (stereo not given) [TGX221] (max 10 µM) | – | 0.769 | 0.503 | –
47 | CN(C)C/C=C/C(=O)Nc1ccc(C(=O)Nc2cccc(Nc3ncc(Cl)c(-c4c[nH]c5ccccc45)n3)c2)cc1 [THZ1] (max 1 µM) | -0.522 | – | – | –
48 | CN(C)C/C=C/C(=O)Nc1ccc(C(=O)N2CCC[C@@H](Nc3ncc(Cl)c(-c4c[nH]c5ccccc45)n3)C2)cc1 [THZ531] (max 1 µM) | -0.312 | – | – | –
49 | CN(C)C/C=C/C(=O)Nc1ccc(C(=O)Nc2cccc(Nc3cc(-c4c[nH]c5ccccc45)ncn3)c2)cc1 [THZ-P1-2] (max 10 µM) | 0.857 | – | – | –
50 | Cc1nc(-c2cn3c(n2)-c2ccc(-c4cnn(C(C)(C)C(N)=O)c4)cc2OCC3)n(C(C)C)n1 [Taselisib/GDC0032] (max 10 µM) | – | 0.173 | -0.233 | –
51 | O=C1NC(=O)[C@@H](c2cn3c4c(cccc24)CCC3)[C@@H]1c1c[nH]c2ccccc12 [Tivantinib/ARQ197] (max 10 µM) | – | 0.0341 | -0.33 | –
52 | CC[C@@]1(O)C(=O)OCc2c1cc1n(c2=O)Cc2cc3c(CN(C)C)c(O)ccc3nc2-1 [Topotecan] (max 10 µM) | – | -0.376 | -0.801 | –
53 | Nc1ccc(-c2ccc3ncc4ccc(=O)n(-c5cccc(C(F)(F)F)c5)c4c3c2)cn1 [Torin2] (max 1 µM) | – | -0.0145 | -0.497 | –
54 | CC[C@@H]1C(=O)N(C)c2cnc(Nc3ccc(C(=O)N[C@H]4CC[C@H](N5CCN(CC6CC6)CC5)CC4)cc3OC)nc2N1C(C)C [Volasertib/BI6727] (max 1 µM) | – | -0.0388 | 0.286 | –
55 | O=C(CCCCCCC(=O)Nc1ccccc1)NO [Vorinostat] (max 10 µM) | – | -0.479 | -0.596 | –
56 | C=CC(=O)Nc1ccc(C(=O)Nc2[nH]nc3c2CN(C(=O)N[C@H](CN(C)C)c2ccccc2)C3(C)C)cc1 [YKL-5-124] (max 10 µM) | -0.513 | – | – | –
57 | CN1CCN(C(=O)c2ccc3cc(CCNc4ncnc5ccc(C#N)cc45)ccc3c2)CC1 [senexin b] (max 10 µM) | 0.223 | – | – | –
